According to patent publication US9006450B2 (Boehringer Ingelheim International GmbH, priority 2010, dated 2015):

Biological target: T1, human ACC2 (Homo sapiens, UniProt O00763)
T1 construct: made in house; host or cells: insect cells (baculoviral expression system)
Assay: ACC2 assay, spectrophotometric 384 well assay (NADH-linked, coupled lactate dehydrogenase/pyruvate kinase)
Format: biochemical
Details: ACC2 assay, hACC2 construct lacking 128 N-terminal amino acids, 25° C., 340 nm; read-out: IC50
Experimental: Spectrophotometric 384 Well Assay
Malonyl CoA formation by acetyl CoA carboxylases is stoichometrically linked to the consumption of ATP. ACC2 activity is measured in a NADH-linked kinetic method measuring ADP generated during the ACC reaction using a coupled lactate dehydrogenase/pyruvate kinase reaction.
For biological testing, a human ACC2 construct which lacks the 128 amino acids at the N-terminus for increased solubility (nt 385-6966 in Genbank entry AJ575592) is cloned. The protein is then expressed in insect cells using a baculoviral expression system. Protein purification is performed by anion exchange.
All compounds are dissolved in dimethyl sulfoxide (DMSO) to a concentration of 10 mM.
Assay reactions are then carried out in 384-well plates, with hACC2 in an appropriate dilution and at final assay concentrations (f.c.) of 100 mM Tris (pH 7.5), 10 mM trisodium citrate, 25 mM KHCO3, 10 mM MgCl2, 0.5 mg/mL BSA, 3.75 mM reduced L-glutathione, 15 U/mL lactate dehydrogenase, 0.5 mM phosphoenolpyruvate, 15 U/mL pyruvate kinase, compounds at different concentrations at final DMSO concentrations of 1%.
The enzymatic reaction is then started by addition of a mixture of NADH, acetyl Coenzyme A (both 200 μM f.c.) and ATP (500 uM f.c.). The decrease of the optical density (slope S) is then determined at 25° C. at a wavelength of 340 nm over 15 minutes in a spectrophotometric reader.
Each assay microtiter plate contains wells with vehicle instead of compound as controls for the non-inhibited enzyme (100% CTL; ‘HIGH’) and wells without acetyl-CoA as controls for non-specific NADH degradation (0% CTL; ‘LOW’).
The slope S is used for calculation of % CTL=(S(compound)−S('LOW'))/(S('HIGH')−S('LOW'))*100. Compounds will give values between 100% CTL (no inhibition) and 0% CTL (complete inhibition).
For IC50 value determination, the sample slope in the presence of the test compound after subtraction of the low controls (S(compound)−S('LOW')) are used.
An IC50 value is derived from the compound slopes at different dosages after subtraction of the low controls (S(compound)−S('LOW')) by non-linear regression curve fitting (equation y=(A+((B−A)/(1+((C/x)^D))))).

T1 sequence (O00763 129-2458 limits assumed): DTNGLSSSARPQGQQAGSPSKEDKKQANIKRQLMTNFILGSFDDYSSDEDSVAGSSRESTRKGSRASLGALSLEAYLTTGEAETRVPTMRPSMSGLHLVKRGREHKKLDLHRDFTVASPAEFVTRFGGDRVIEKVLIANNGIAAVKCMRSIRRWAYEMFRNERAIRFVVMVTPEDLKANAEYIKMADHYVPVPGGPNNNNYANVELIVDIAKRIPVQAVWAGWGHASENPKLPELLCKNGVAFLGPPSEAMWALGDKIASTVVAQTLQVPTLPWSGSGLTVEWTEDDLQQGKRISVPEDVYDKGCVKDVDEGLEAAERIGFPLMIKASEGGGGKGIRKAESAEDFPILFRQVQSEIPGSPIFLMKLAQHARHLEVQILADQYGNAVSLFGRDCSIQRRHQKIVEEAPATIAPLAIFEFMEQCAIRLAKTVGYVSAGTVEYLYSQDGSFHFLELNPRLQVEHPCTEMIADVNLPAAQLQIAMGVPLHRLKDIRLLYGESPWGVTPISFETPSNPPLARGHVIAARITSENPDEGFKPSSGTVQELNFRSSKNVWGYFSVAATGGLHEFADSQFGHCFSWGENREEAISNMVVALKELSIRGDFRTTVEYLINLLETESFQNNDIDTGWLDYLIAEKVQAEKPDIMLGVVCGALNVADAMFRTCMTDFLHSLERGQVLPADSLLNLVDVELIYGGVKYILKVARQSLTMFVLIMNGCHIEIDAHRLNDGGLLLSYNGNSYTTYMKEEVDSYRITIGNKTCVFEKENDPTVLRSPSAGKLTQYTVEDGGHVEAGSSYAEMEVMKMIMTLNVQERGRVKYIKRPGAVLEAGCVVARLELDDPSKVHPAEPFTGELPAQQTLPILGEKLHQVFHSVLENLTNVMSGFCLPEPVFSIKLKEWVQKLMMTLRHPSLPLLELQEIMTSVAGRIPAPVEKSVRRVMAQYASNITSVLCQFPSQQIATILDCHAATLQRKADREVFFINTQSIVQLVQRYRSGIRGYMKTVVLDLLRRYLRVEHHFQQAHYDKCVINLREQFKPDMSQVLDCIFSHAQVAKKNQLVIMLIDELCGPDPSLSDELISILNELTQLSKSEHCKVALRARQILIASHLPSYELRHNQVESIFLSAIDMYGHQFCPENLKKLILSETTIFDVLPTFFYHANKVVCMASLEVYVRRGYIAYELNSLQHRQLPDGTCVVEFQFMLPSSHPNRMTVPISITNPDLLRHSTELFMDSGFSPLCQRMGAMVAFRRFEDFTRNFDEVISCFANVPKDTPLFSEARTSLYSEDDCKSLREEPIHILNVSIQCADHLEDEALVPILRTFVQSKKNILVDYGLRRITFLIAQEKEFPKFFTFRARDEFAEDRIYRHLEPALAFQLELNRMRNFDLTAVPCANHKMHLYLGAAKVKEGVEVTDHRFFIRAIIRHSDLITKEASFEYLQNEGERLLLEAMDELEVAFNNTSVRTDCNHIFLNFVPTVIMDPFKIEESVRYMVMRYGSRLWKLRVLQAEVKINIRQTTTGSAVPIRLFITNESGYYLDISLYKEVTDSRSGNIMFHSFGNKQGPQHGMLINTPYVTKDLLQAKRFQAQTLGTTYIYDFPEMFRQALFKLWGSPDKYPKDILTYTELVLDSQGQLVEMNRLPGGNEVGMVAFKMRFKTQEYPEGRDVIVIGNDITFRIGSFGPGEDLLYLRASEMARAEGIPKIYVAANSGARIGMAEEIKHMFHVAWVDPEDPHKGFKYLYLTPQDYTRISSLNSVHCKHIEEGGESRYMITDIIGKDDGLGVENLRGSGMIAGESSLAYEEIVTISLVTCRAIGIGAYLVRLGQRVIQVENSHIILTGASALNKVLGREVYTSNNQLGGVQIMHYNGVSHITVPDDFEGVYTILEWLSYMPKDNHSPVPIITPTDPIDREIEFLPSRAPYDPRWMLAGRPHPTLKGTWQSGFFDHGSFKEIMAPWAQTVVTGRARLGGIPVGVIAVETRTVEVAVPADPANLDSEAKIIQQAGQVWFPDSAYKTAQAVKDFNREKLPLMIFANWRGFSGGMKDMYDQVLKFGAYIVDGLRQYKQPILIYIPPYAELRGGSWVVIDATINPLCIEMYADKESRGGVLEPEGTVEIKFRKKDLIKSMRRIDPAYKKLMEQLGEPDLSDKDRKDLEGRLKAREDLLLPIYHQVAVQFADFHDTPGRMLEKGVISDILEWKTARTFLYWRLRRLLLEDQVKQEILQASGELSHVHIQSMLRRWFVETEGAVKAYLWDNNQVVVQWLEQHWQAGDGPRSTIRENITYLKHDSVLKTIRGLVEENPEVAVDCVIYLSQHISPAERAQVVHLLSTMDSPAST

| Structure (SMILES) | IC50 |
| --- | --- |
| CCOc1ccc(N2CCC(c3ccc([C@H](C)NC(C)=O)cc3)CC2)cc1 [Example 1.1, (S)—N-(1-{4-[1-(4-Ethoxy-phenyl)-piperidin-4-yl]-phenyl}-ethyl)-acetamide] | 130 nM |
| CC(=O)N[C@@H](C)c1ccc(C2CCN(c3ccc(OC4CCCC4)cc3)CC2)cc1 [Example 1.2] | 50 nM |
| CCCCOc1ccc(N2CCC(c3ccc([C@H](C)NC(C)=O)cc3)CC2)cc1 [Example 1.3] | 90 nM |
| CCOc1ccc(N2CCC(c3ccc([C@H](C)NC(C)=O)cc3)CC2)cn1 [Example 1.4] | 320 nM |
| CCOc1ccc(N2CCC(c3ccc([C@H](C)NC(=O)OC)cc3)CC2)cc1 [Example 1.5] | 350 nM |
| CCC(C)Oc1ccc(N2CCC(c3ccc([C@H](C)NC(=O)N(C)C)cc3)CC2)cc1 (some centres unmarked) [Example 1.7] | 140 nM |
| CCCOc1ccc(N2CCC(c3ccc([C@H](C)NC(=O)N(C)C)cc3)CC2)cc1 [Example 1.8] | 120 nM |
| C[C@H](NC(=O)C1CC1)c1ccc(C2CCN(c3ccc(OC4CCC4)cc3)CC2)cc1 [Example 1.9] | 50 nM |
| CCC(C)Oc1ccc(N2CCC(c3ccc([C@H](C)NC(=O)C4CC4)cc3)CC2)cc1 (some centres unmarked) [Example 1.10] | 220 nM |
| CCOc1cc(N2CCC(c3ccc([C@H](C)NC(=O)OC)cc3)CC2)ccn1 [Example 1.11] | 300 nM |
| COC(=O)N[C@@H](C)c1ccc(C2CCN(c3ccc(OC4CCC4)cc3)CC2)cc1 [Example 1.12] | 80 nM |
| CCCOc1ccc(N2CCC(c3ccc([C@H](C)NC(=O)OC)cc3)CC2)cc1 [Example 1.13] | 100 nM |
| C[C@H](NC(=O)C1CC1)c1ccc(C2CCN(c3ccc(OC4CC4)cc3)CC2)cc1 [Example 1.14] | 100 nM |
| CCC(C)Oc1ccc(N2CCC(c3ccc([C@H](C)NC(=O)OC)cc3)CC2)cc1 (some centres unmarked) [Example 1.15] | 240 nM |
| C[C@H](NC(=O)C1CC1)c1ccc(C2CCN(c3ccc(OCC4CC4)cc3)CC2)cc1 [Example 1.16] | 90 nM |
| COC(=O)N[C@@H](C)c1ccc(C2CCN(c3ccc4c(c3)OCCO4)CC2)cc1 [Example 1.17] | 450 nM |
| C[C@H](NC(=O)C1CC1)c1ccc(C2CCN(c3ccc4c(c3)OCCO4)CC2)cc1 [Example 1.19] | 260 nM |
| CCOc1cc(N2CCC(c3ccc([C@H](C)NC(=O)C4CC4)cc3)CC2)ccn1 [Example 1.20] | 290 nM |
| C[C@H](NC(=O)N(C)C)c1ccc(C2CCN(c3ccc(OC4CCC4)cc3)CC2)cc1 [Example 1.21] | 80 nM |
| COC(=O)N[C@@H](C)c1ccc(C2CCN(c3ccc(OCC4CC4)cc3)CC2)cc1 [Example 1.22] | 140 nM |
| CCCOc1ccc(N2CCC(c3ccc([C@H](C)NC(=O)C4CC4)cc3)CC2)cc1 [Example 1.23] | 50 nM |
| C[C@H](NC(=O)N(C)C)c1ccc(C2CCN(c3ccc(OCC4CC4)cc3)CC2)cc1 [Example 1.24] | 210 nM |

| Structure (SMILES) | IC50 |
| --- | --- |
| CCOc1ccc(N2CCC(c3ccc([C@H](C)NC(=O)C4CC4)cc3)CC2)cc1 [Example 1.25] | 150 nM |
| CC(=O)N[C@@H](C)c1ccc(C2CCN(c3cccc(O)c3)CC2)cc1 [Example 1.27, (S)—N-{1-(4-[1-(3-hydroxyphenyl)-piperidin-4-yl]-phenyl}-ethyl)-acetamide] | 5800 nM |
| CCC(C)Oc1ccc(N2CCC(c3ccc([C@H](C)NC(C)=O)cc3)CC2)cc1 (some centres unmarked) [Example 1.29] | 80 nM |
| COc1ccc(N2CCC(c3ccc([C@H](C)NC(C)=O)cc3)CC2)cc1 [Example 1.30] | 230 nM |
| CCCOc1ccc(N2CCC(c3ccc([C@H](C)NC(C)=O)cc3)CC2)c(OC)c1 [Example 1.31] | 180 nM |
| CCCOc1ccc(N2CCC(c3ccc([C@H](C)NC(C)=O)cc3)CC2)c(C)c1 [Example 1.32] | 90 nM |
| CCCOc1ccc(N2CCC(c3ccc([C@H](C)NC(C)=O)cc3)CC2)c(Cl)c1 [Example 1.33] | 120 nM |
| COc1ccc(N2CCC(c3ccc([C@H](C)NC(C)=O)cc3)CC2)c(C#N)c1 [Example 1.34] | 260 nM |
| COc1cc(OC(C)C)ccc1N1CCC(c2ccc([C@H](C)NC(C)=O)cc2)CC1 [Example 1.35] | 320 nM |
| COc1cc(OCC2CC2)ccc1N1CCC(c2ccc([C@H](C)NC(C)=O)cc2)CC1 [Example 1.36] | 410 nM |
| COc1cc(OC2CCC2)ccc1N1CCC(c2ccc([C@H](C)NC(C)=O)cc2)CC1 [Example 1.37] | 110 nM |
| CCC(C)Oc1ccc(N2CCC(c3ccc([C@H](C)NC(C)=O)cc3)CC2)c(OC)c1 (some centres unmarked) [Example 1.39] | 130 nM |
| CC(=O)N[C@@H](C)c1ccc(C2CCN(c3ccc4c(c3)OCCO4)CC2)cc1 [Example 1.40] | 140 nM |
| COc1ccc(N2CCC(c3ccc([C@H](C)NC(C)=O)cc3)CC2)c(OC)c1 [Example 1.41] | 320 nM |
| CCOc1ccc(N2CCC(c3ccc([C@H](C)NC(C)=O)cc3)CC2)c(OCC)c1 [Example 1.42] | 630 nM |
| COc1ccc(N2CCC(c3ccc([C@H](C)NC(C)=O)cc3)CC2)cc1OC [Example 1.43] | 4100 nM |
| CC(=O)N[C@@H](C)c1ccc(C2CCN(c3ccc4c(c3)OCCCO4)CC2)cc1 [Example 1.44] | 180 nM |
| CC(=O)N[C@@H](C)c1ccc(C2CCN(c3ccccc3)CC2)cc1 [Example 1.45] | 370 nM |
| CC(=O)N[C@@H](C)c1ccc(C2CCN(c3ccc(Cl)cc3)CC2)cc1 [Example 1.46] | 700 nM |
| CCOc1ccc(N2CCC(c3ccc([C@H](C)NC(C)=O)cc3)CC2)cc1OCC [Example 1.47] | 2900 nM |
| CC(=O)N[C@@H](C)c1ccc(C2CCN(c3ccc(O)cc3)CC2)cc1 [Example 1.48, (S)—N-{1-(4-[1-(4-Hydroxyphenyl)-piperidin-4-yl]-phenyl}-ethyl)-acetamide] | 11300 nM |
| CC(=O)N[C@@H](C)c1ccc(C2CCN(c3ccc(OC(C)C)cc3C#N)CC2)cc1 [Example 1.50] | 120 nM |

| Structure (SMILES) | IC50 |
| --- | --- |
| CC(=O)N[C@@H](C)c1ccc(C2CCN(c3ccc(OC4CCC4)cc3C#N)CC2)cc1 [Example 1.51] | 90 nM |
| CC(=O)N[C@@H](C)c1ccc(C2CCN(c3ccc(C(C)C)cc3)CC2)cc1 [Example 1.52] | 110 nM |
| COc1ccc(N2CCC(c3ccc([C@H](C)NC(C)=O)cc3)CC2)cn1 [Example 1.53] | 820 nM |
| CC(=O)N[C@@H](C)c1ccc(C2CCN(c3ccc(OCc4ccccc4)nc3)CC2)cc1 [Example 1.54] | 130 nM |
| CCCOc1ccc(N2CCC(c3ccc([C@H](C)NC(C)=O)cc3)CC2)cn1 [Example 1.55] | 240 nM |
| COc1cc(C)c(N2CCC(c3ccc([C@H](C)NC(C)=O)cc3)CC2)cn1 [Example 1.56] | 720 nM |
| Cc1cc(OC2CC2)ccc1N1CCC(c2ccc([C@H](C)NC(=O)N(C)C)cc2)CC1 [Example 1.57] | 100 nM |
| C[C@H](NC(=O)N(C)C)c1ccc(C2CCN(c3ccc4c(c3)OCC(C)(C)CO4)CC2)cc1 [Example 1.58] | 120 nM |
| CC(=O)N[C@@H](C)c1ccc(C2CCN(c3ccc(OCC4CC4)nc3)CC2)cc1 [Example 1.59] | 140 nM |
| CC(=O)N[C@@H](C)c1ccc(C2CCN(c3ccc(OC(C)C)nc3)CC2)cc1 [Example 1.60] | 180 nM |
| CC(=O)N[C@@H](C)c1ccc(C2CCN(c3ccc4c(c3)OCC(C)(C)CO4)CC2)cc1 [Example 1.61] | 210 nM |
| CC(=O)N[C@@H](C)c1ccc(C2CCN(c3ccc(OC4CCC4)nc3)CC2)cc1 [Example 1.62] | 200 nM |
| CC(=O)N[C@@H](C)c1ccc(C2CCN(c3ccc(O[C@@H]4CCOC4)cc3F)CC2)cc1 [Example 1.63] | 1300 nM |
| CCCOc1ccc(N2CCC(c3ccc([C@H](C)NC(C)=O)cc3)CC2)c(F)c1 [Example 1.64] | 70 nM |
| CC(=O)N[C@@H](C)c1ccc(C2CCN(c3ccc(O)cc3F)CC2)cc1 [Example 1.65] | 20000 nM |
| CC(=O)N[C@@H](C)c1ccc(C2CCN(c3ccc4nc(C)sc4c3)CC2)cc1 [Example 1.66] | 420 nM |
| CC(=O)N[C@@H](C)c1ccc(C2CCN(c3ccc4c(c3)OCO4)CC2)cc1 [Example 1.67] | 360 nM |
| CC(=O)N[C@@H](C)c1ccc(C2CCN(c3ccc4oc(=O)[nH]c4c3)CC2)cc1 [Example 1.68] | 23900 nM |
| CC(=O)N[C@@H](C)c1ccc(C2CCN(c3ccc4sccc4c3)CC2)cc1 [Example 1.69] | 4000 nM |
| CC(=O)N[C@@H](C)c1ccc(C2CCN(c3ccc4nc(C)n(C)c4c3)CC2)cc1 [Example 1.70] | 7400 nM |
| CC(=O)N[C@@H](C)c1ccc(C2CCN(c3ccc4oc(-c5ccccc5)nc4c3)CC2)cc1 [Example 1.71] | 80 nM |
